According to US20060063162A1, “Biological marker for inflammation” (priority 2004, published 2006):

How the values were obtained:
Type in all cases: cell-based, human
[1] = tested on: PSG expression in endothelial cells from vein; assay: Microarray analysis of PSG gene expression in saphenous vein endothelial cells after atherogenic stimuli; conditions: after treatment
Source text: (§1) Vein and artery respond differently to atherogenic lesion under different conditions. […] However, venous bypass grafts can develop accelerated atherosclerosis in vein graft disease for patients after bypass surgery. […] This could possibly be explained by the different roles of endothelial and smooth muscle cells in the development of atherosclerosis. Endothelial cells (EC) are critical in the initiation of atherosclerosis, while smooth muscle cells (SMC) are closely related to the evolution of the atheroma. The global gene expression responses to various atherogenic stimulations between human venous and arterial cells have been determined to identify genes that may contribute to different susceptibilities to atherosclerosis.
When gene expression of untreated saphenous vein endothelial cells (SVEC) and coronary artery endothelial cells (CAEC) were compared by microarray analysis, five isoforms (PSG1, PSG3, PSG6, PSG7 and PSG9) out of 9 isoforms in the arrays were higher (>1.5 fold and P<0.005) in SVEC than CAEC. In untreated saphenous vein smooth muscle cells (SVSM) and coronary artery smooth muscle cells (CASM), all 9 isoforms of PSGs in the arrays are expressed higher in SVSM than CASM (See Table 1). […]

[2] = tested on: PSG expression in endothelial cells from artery; assay: Microarray analysis of PSG gene expression in coronary artery endothelial cells after atherogenic stimuli; conditions: after treatment
[3] = tested on: PSG expression in coronary arterial smooth muscle cells; assay: Microarray analysis of PSG gene expression in coronary artery smooth muscle cells after atherogenic stimuli; conditions: for PSG 2 expression / PSG6 expression / PSG1 expression response: SMCs from coronary artery; for PSG expression: coronary arterial smooth muscle cells, after treatment
Source text: as §1
(§2) When gene expression of untreated saphenous vein endothelial cells (SVEC) and coronary artery endothelial cells (CAEC) were compared by microarray analysis, five isoforms (PSG1, PSG3, PSG6, PSG7 and PSG9) out of 9 isoforms in the arrays were higher (>1.5 fold and P<0.005) in SVEC than CAEC. In untreated saphenous vein smooth muscle cells (SVSM) and coronary artery smooth muscle cells (CASM), all 9 isoforms of PSGs in the arrays are expressed higher in SVSM than CASM (See Table 1). It is unlikely a false positive result from arrays, since the result was obtained from 4 separate primary cultures from two-donors and more than 5 microarray data sets, and multiple PSG isoforms had similar changes. […] In basal state, PSG expression is higher in vein than artery.
Oxidized LDL (OxLDL), a key atherogenic factor, pro-inflammatory cytokines TNFα and IL1β, as well as cytokines regulating cell proliferation, differentiation and migration like PDGF and TGFβ all up-regulate PSG expression in coronary arterial smooth muscle cells.

[4] = tested on: PSG expression in SMCs from saphenous vein; assay: Microarray analysis of PSG gene expression in saphenous vein smooth muscle cells after atherogenic stimuli
Source text: as §1, §2
The gene expression of PSG isoforms is quite different between the two SMCs. In SMCs from saphenous vein, TGFβ and TNFα down-regulate the expression of PSG1. TGFβ also down-regulates PSG9.

| Substance | PSG expression [1] | PSG expression [2] | PSG 2 expression [3] | PSG6 expression [3] | PSG expression [3] | PSG1 expression [4] | PSG1 expression response [3] | PSG9 expression [4] |
| --- | --- | --- | --- | --- | --- | --- | --- | --- |
| TNFα | No significant change | No significant change | up-regulated | up-regulated | up-regulate | down-regulate |  |  |
| IL1β: pro-inflammatory cytokine | No significant change | No significant change | up-regulated | up-regulated | up-regulate |  | opposite responses |  |
| TGFβ |  |  | up-regulated | up-regulated | up-regulate | down-regulate | opposite responses | down-regulates |
| PDGF |  |  | up-regulated | up-regulated | up-regulate |  |  |  |
